Test results published in paper PMC4806436, “Disrupted ADP-ribose metabolism with nuclear Poly (ADP-ribose) accumulation leads to different cell death pathways in presence of hydrogen peroxide in procyclic Trypanosoma brucei” (Parasites & Vectors, 2016).
Entries after “also recorded” stand apart in the source; their conditions may differ. Like-named read-outs stand apart in the source and are kept apart here.

Key:
[1] = biological target: TbPARP (Trypanosoma brucei brucei, UniProt Q0PW89); experiment: biochemical; details: 5 nM TbPARP, 500 nM NAD+, 11 min at 25 °C, mean of three dose-response curves
TbPARP, sequence (Q0PW89 entry or part of it): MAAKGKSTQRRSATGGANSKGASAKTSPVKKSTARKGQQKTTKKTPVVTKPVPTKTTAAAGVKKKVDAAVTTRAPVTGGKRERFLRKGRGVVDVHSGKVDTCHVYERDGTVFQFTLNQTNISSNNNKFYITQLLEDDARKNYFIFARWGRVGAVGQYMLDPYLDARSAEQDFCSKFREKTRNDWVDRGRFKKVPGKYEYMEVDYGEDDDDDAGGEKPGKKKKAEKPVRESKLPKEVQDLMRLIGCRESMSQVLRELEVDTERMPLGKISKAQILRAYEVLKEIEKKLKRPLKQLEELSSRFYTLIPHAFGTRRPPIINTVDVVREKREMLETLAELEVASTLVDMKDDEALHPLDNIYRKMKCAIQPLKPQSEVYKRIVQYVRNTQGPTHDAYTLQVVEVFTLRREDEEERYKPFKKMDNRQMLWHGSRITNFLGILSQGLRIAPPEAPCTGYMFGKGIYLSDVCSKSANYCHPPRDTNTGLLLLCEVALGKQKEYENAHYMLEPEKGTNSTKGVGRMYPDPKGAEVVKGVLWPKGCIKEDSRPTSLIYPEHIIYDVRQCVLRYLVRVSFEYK
Procedure: The optimal conditions for the activity of purified recombinant TbPARP, were determined by using a fluorometric activity assay. Incubation at 25 °C with shaking at 300 rpm was placed in propylene plates of 96 wells (Greiner BioOne). To terminate the reaction 2 M KOH (20 μL) and 20 % acetophenone in ethanol (20 μL) were added to each well. After incubating for 10 min at 4 °C, 90 μl of 88 % formic acid was added and incubated in an oven at 110 °C for 5 min. This reaction converts remaining NAD^+ to a fluorescent derivative. After incubation, the plate was allowed to cool down for 15 min and fluorescence was measured using excitation wavelengths of 372 nm and 444 nm for excitation and emission, respectively (Varioskan Flash 4.00.53, Thermo Scientific). Consumption of NAD^+ was detected by the decrease in fluorescence. Experiments were done in triplicates. The activity in control wells were kept under 25 % by optimizing the protein concentration and the incubation time, in order to get a robust signal without slowing down the enzyme activity.
A small set of cations was also tested in order to verify whether the enzymatic activity would depend on them. […] The final assay buffer was 100 mM Na2HPO4/NaH2PO4 pH 7, 500 μM TCEP, 1 μg/μL BSA, and 0.025 mg/mL activated DNA (Sigma Aldrich) and 500 nM NAD^+ (Sigma Aldrich).
Thirty - one compounds were tested. Dilutions from DMSO stocks were made (100 μM, 10 μM and 1 μM) and aliquots of those were used in the enzymatic reaction with 10-fold dilution. Inhibitor solutions were added in triplicates to the plate, followed by the addition of the NAD^+. Reactions were initiated by addition of TbPARP diluted in the same buffer (10 nM). The plate was incubated at 25 °C with shaking (300 rpm, Biosan PST-100 HL) for 45 min. […] To detect any potential fluorescence inherent in the compounds, control reactions were carried out separately with compound alone at 10 μM final concentration. The possible fluorescence quenching properties were controlled using wells within the experimental plate containing the compound with 500 nM NAD^+ in the assay buffer.
The IC50 value for 3-AB (Alexis Biochemicals) was also determined to be used as a reference. Briefly, reaction mix together with the inhibitors at half log dilutions were added to a 96-well plate (10 data points). Reactions were incubated for 11 min at 25 °C after initiating the reaction with the addition of 5 nM TbPARP at a final volume of 50 μL. Measurement of the remaining NAD^+ is described in section Screening of TbPARP inhibitors. All reactions were performed in triplicates and three independent dose response curves were fitted for each inhibitor. Control wells with only NAD^+ or NAD^+ and enzyme were used in the curve fitting, as detailed in our previous work.

[2] = test system: TcPARP; parameters: method as in PMID 23049934; details: read-out: potency towards TcPARP; cited from earlier work
[3] = test system: Trypanosoma brucei procyclic parasites; experiment: Effect of inhibitors on procyclic parasite growth (OD600, 48 h); format: cell-based
Procedure: Trypanosoma brucei procyclic parasites were grown in SDM-79 medium for 48 h until reaching a density of 5×10^6 cells/mL. Aliquots of 200 μl were distributed in 96-well plates and inhibitors were present at different final concentrations, as indicated in the figures. Nifurtimox (NFX) was used as a positive control in concentrations ranging from 0.25–25 μM. Culture density was checked by OD600 after 48 h.
In all experiments, triplicates were done for each condition tested and data significance was assessed by one-way Anova (GraphPad Prism5.03 version Software).

[4] = test system: PAR formation in procyclic T. brucei; experiment: In culture inhibition of PAR formation after H2O2, Dot blot, procyclic form; format: cell-based, Trypanosoma brucei; details: inhibitor at 10-fold in vitro IC50 (0.23 μM 4-ANI; 65 nM EB-47; 29 nM Olaparib; 1.5 μM Rucaparib), 30 min preincubation, 500 μM H2O2 10 min
Procedure: (§1) T. brucei procyclic strain 29–13 [29] was cultured at 28 °C in SDM-79 (Bioscience) containing 10 % (v/v) FCS and 0002 % hemin. T. brucei bloodstream strain 427 90-13 [29] was cultured at 37 °C in HMI-11 (Iscore’s Modified Dulbecco’s Medium (Invitrogen), 100 mg/L sodium pyruvate, 136.1 mg/L hypoxantine, 38.7 mg/L thymidine, 28.22 mg/L bathocuproinedisulfonic acid, 181.8 mg/L L-cysteine, 3.024 mg/L sodium carbonate, 196 μM β-mercaptoethanol) containing FCS (10 % v/v). Parasite viability was analyzed by microscopy.
(§2) For in culture inhibition assays, parasites of the procyclic form of Trypanosoma brucei were grown for 48 h up to a density of 5×10^6 parasites/mL. Parasites of the bloodstream form were grown for 24 h up to a density of 5×10^5 parasites/mL. In both cases, cells were harvested and preincubated for 30 min or 10 min in PBS-Glucose 2 % with inhibitors added, after which the parasites were treated with 500 μM or 250 μM hydrogen peroxide for procyclic and bloodstream forms, respectively, for 10 min.

[5] = test system: Trypanosoma brucei bloodstream parasites; experiment: Effect of inhibitors on bloodstream parasite growth (Neubauer count, 24 h); format: cell-based; details: Olaparib 29 nM, Rucaparib 1.5 μM, 3-AB 580 μM, Nifurtimox 2.5 μM
Procedure: Trypanosoma brucei bloodstream parasites were grown in HMI-11 medium for 24 h until reaching a density of 5×10^5 cells/mL. Aliquots of 100 μL were distributed in 96-well plates and inhibitors were added at different concentrations as indicated in the figures. After an incubation period of 24 h, the parasite number was counted with a Neubauer chamber. In all experiments, triplicates were done for each condition tested and data significance was assessed by one-way Anova (GraphPad Prism5.03 version Software).

[6] = test system: PAR formation in bloodstream T. brucei; experiment: In culture inhibition of PAR formation after H2O2, Dot blot, bloodstream form; format: cell-based, Trypanosoma brucei; details: inhibitor at 10-fold in vitro IC50 (29 nM Olaparib; 1.5 μM Rucaparib), 10 min preincubation, 250 μM H2O2
Procedure: as §1, §2

SMILES: CNCc1ccc(-c2[nH]c3cc(F)cc4c3c2CCNC4=O)cc1 [Rucaparib, 6-fluoro-2-{4-[(methylamino)methyl]phenyl}-3,10-diazatricyclo[6.4.1.0^{4,13}]trideca-1,4(13),5,7-tetraen-9-one]
- IC50 ([1]; read-out: TbPARP IC50): 150 nM
- IC50 ([1]; read-out: TbPARP pIC50 ± SEM (converted)): 148 nM
- IC50 [2]: 25 nM
- impact on growth rate of procyclic parasites ([3]; 15 μM (highest concentration)): visible impact on the growth rate
- decrease in procyclic parasite growth ([3]; 15 μM, 48 h): 20%
- inhibition of PAR formation in culture, procyclic form [4]: inhibited PAR formation in culture; also recorded: able to reduce PAR formation
- effect on bloodstream parasite growth [5]: not able to significantly affect T. brucei growth or survival
- inhibition of PAR formation in culture, bloodstream form [6]: able to inhibit PAR formations in culture; also recorded: able to reduce PAR formation
